Test results reported in US10259810B2, “N-sulfonylated pyrazolo[3,4-b]pyridin-6-carboxamides and method of use” (AbbVie S.à.r.l., priority 2015, dated 2019).

Assays:
Assay type in all cases: cell-based
ΔF508-CFTR [1] = biological target: T1, ΔF508-CFTR (Homo sapiens, UniProt P13569, DEL508-508); assay: CFTR cell surface levels using HRP-tagged ΔF508-CFTR expressing CFBE cells, in the presence of a co-corrector; conditions: HRP-tagged ΔF508-CFTR CFBE cells, in the presence of 3 μM co-corrector; for EC50: read-out: EC50
T1 construct: host or cells: CFBE41o-, doxycycline-inducible
Procedure, shortened: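 Chemiluminescent read-out of surface HRP (15 min, dark) after PBS washes. Activity is normalized as 100×(sample−DMSO)/(3 μM co-corrector alone−DMSO).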

ΔF508-CFTR [2] = biological target: T1, ΔF508-CFTR; assay: CFTR cell surface levels using HRP-tagged ΔF508-CFTR expressing CFBE cells, intrinsic corrector capacity; design: % Activation: concentration or dose not given beside the values; conditions: HRP-tagged ΔF508-CFTR expressing CFBE41o- cells, compound alone (intrinsic corrector capacity), 20 hours at 33° C.; for EC50: read-out: EC50
Procedure, shortened: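 Read-out: chemiluminescent HRP activity of ECL4-HRP-tagged ΔF508-CFTR at the cell surface, 15 min substrate in dark. Normalized as 100×(sample−DMSO)/(positive control−DMSO).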

CFTR ΔF508 = biological target: T2, CFTR ΔF508 (Homo sapiens, UniProt P13569, DEL508-508); assay: Chronic TECC assay, primary bronchial epithelial cells of CF patients homozygous for CFTR ΔF508 (corrector, co-corrector and potentiator); conditions: chronic TECC, AUC = full area under the curve upon forskolin stimulation; for EC50: read-out: EC50 (nM) (AUC**); for % Activity at 1 μM (AUC**): test compound at 1 μM; for % Activity at 3 μM (AUC**): test compound at 3 μM
T2 construct: bronchial epithelial cells isolated from CF patients homozygous for the CFTR ΔF508 mutation; McGill University; Asterand; University of North Carolina hAEC-CF; host or cells: primary human bronchial epithelial cells from CF patients homozygous for ΔF508, differentiated at air-liquid interface
Procedure, shortened: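 Primary bronchial epithelial cells from ΔF508-homozygous CF patients on collagen IV-coated Transwells were chronically treated with test compound plus corrector and potentiator, which were re-added before recording. Ieq was derived from PD and Rt in NaCl-Ringer, pH 7.4, at 37° C, with apical amiloride and bilateral forskolin, recorded every 2 min over 20 min. Ieq increase was normalized to controls, and EC50 was taken from per-well concentrations.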

T1 sequence (P13569 with tags, fused parts or gaps DEL508-508): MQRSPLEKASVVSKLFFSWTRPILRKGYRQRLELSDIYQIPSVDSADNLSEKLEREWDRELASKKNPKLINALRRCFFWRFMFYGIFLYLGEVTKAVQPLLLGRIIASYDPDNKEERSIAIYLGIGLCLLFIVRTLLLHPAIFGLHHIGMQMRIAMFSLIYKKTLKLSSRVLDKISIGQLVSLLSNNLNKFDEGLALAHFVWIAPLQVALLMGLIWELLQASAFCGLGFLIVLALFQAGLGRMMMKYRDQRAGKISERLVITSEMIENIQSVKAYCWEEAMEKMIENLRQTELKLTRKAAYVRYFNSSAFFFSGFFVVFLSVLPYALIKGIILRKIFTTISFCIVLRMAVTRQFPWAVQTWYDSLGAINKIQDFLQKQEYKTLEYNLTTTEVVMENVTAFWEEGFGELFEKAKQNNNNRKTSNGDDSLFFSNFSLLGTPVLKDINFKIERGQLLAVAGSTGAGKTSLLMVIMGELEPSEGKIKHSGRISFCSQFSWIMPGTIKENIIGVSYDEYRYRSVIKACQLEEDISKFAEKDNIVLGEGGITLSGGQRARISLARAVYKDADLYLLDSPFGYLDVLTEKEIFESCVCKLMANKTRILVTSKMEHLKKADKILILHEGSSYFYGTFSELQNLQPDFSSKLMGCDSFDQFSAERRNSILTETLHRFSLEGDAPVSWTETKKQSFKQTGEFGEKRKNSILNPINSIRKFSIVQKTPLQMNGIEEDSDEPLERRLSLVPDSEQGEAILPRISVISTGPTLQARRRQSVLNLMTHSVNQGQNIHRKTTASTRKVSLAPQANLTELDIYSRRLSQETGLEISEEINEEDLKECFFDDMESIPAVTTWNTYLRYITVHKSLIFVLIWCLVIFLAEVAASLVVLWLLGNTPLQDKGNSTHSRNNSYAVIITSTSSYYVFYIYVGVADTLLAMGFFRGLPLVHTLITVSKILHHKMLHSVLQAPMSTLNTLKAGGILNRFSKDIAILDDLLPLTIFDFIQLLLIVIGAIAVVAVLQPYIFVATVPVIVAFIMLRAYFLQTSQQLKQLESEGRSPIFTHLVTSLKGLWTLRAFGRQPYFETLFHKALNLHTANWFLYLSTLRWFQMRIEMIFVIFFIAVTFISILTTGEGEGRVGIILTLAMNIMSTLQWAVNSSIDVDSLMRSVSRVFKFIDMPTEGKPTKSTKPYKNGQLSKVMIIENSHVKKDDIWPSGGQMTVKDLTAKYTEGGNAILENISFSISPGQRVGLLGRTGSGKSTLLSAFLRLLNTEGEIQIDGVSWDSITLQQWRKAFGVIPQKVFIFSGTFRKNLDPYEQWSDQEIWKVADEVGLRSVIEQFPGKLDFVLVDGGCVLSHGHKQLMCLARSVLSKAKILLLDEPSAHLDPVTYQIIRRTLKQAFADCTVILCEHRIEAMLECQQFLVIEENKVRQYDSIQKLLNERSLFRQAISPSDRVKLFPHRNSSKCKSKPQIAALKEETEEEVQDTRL
T2 sequence (P13569 with tags, fused parts or gaps DEL508-508): as above

SMILES | % Activation (ΔF508-CFTR [1]) [%] | EC50 (ΔF508-CFTR [1]) [µM] | % Activation (ΔF508-CFTR [2]) [%] | EC50 (ΔF508-CFTR [2]) [µM] | EC50 (CFTR ΔF508) [nM] | % Activity at 1 μM (AUC**) (CFTR ΔF508) [%] | % Activity at 3 μM (AUC**) (CFTR ΔF508) [%]
CN(C)S(=O)(=O)NC(=O)c1cc(N2CCC(N3CCN(C4CC4)CC3)CC2)c2c(C3CCC3)nn(-c3ccccc3)c2n1 [Compound 549, 3-cyclobutyl-4-[4-(4-cyclopropylpiperazin-1-yl)piperidin-1-yl]-N-(dimethylsulfamoyl)-1-phenyl-1H-pyrazolo[3,4-b]pyridine-6-carboxamide] | 476.35 | 0.18 | 276.9 | 0.233 | 243 | 373.3333 | –
CN1CCN(c2ccc(-c3cc(C(=O)NS(=O)(=O)N(C)C)nc4c3c(C3CCC3)nn4C3CCCCC3)cn2)CC1 [Compound 551, 3-cyclobutyl-1-cyclohexyl-N-(dimethylsulfamoyl)-4-[6-(4-methylpiperazin-1-yl)pyridin-3-yl]-1H-pyrazolo[3,4-b]pyridine-6-carboxamide] | 403.1 | 0.382 | 197.8 | 0.763 | – | 239.0643 | –
O=C(NS(=O)(=O)N1CCOCC1)c1cc(N2CCC(N3CCN(C4CC4)CC3)CC2)c2c(C3CCC3)nn(-c3ccccc3)c2n1 [Compound 555, 3-cyclobutyl-4-[4-(4-cyclopropylpiperazin-1-yl)piperidin-1-yl]-N-(morpholine-4-sulfonyl)-1-phenyl-1H-pyrazolo[3,4-b]pyridine-6-carboxamide] | 432.55 | 0.104 | 235.5 | 0.359 | 107 | 296.6667 | –
CNS(=O)(=O)NC(=O)c1cc(N2CCC(N3CCN(C4CC4)CC3)CC2)c2c(C3CCC3)nn(-c3ccccc3)c2n1 [Compound 558, 3-cyclobutyl-4-[4-(4-cyclopropylpiperazin-1-yl)piperidin-1-yl]-N-(methylsulfamoyl)-1-phenyl-1H-pyrazolo[3,4-b]pyridine-6-carboxamide] | 571.35 | 0.106 | 399.1 | 0.532 | 4.74 | 221.9818 | –
CN(C)S(=O)(=O)NC(=O)c1cc(N2CCC(N3CCC(C#N)C3)CC2)c2c(C3CCC3)nn(-c3ccc(F)cc3)c2n1 (centres unmarked) [Compound 561, 4-[4-(3-cyanopyrrolidin-1-yl)piperidin-1-yl]-3-cyclobutyl-N-(dimethylsulfamoyl)-1-(4-fluorophenyl)-1H-pyrazolo[3,4-b]pyridine-6-carboxamide] | 509.4 | 0.043 | 311.6 | 0.107 | – | 620 | –
CN(C)S(=O)(=O)NC(=O)c1cc(N2CCC(N3CCCC(C#N)C3)CC2)c2c(C3CCC3)nn(-c3ccc(F)cc3)c2n1 (centres unmarked) [Compound 562, 4-(3-cyano[1,4'-bipiperidin]-1'-yl)-3-cyclobutyl-N-(dimethylsulfamoyl)-1-(4-fluorophenyl)-1H-pyrazolo[3,4-b]pyridine-6-carboxamide] | 589.55 | 0.0776 | 341.3 | 0.0705 | – | 289.8854 | –
COC1CN(C2CCN(c3cc(C(=O)NS(=O)(=O)N(C)C)nc4c3c(C3CCC3)nn4-c3ccc(F)cc3)CC2)C1 [Compound 570, 3-cyclobutyl-N-(dimethylsulfamoyl)-1-(4-fluorophenyl)-4-[4-(3-methoxyazetidin-1-yl)piperidin-1-yl]-1H-pyrazolo[3,4-b]pyridine-6-carboxamide] | 412.9 | 0.208 | 235.8 | 0.496 | – | – | 377.5594
CN(C)S(=O)(=O)NC(=O)c1cc(N2CCC(N3CCOCC3)CC2)c2c(C3CCC3)nn(-c3ccnc(OC(F)F)c3)c2n1 [Compound 575, 3-cyclobutyl-1-[2-(difluoromethoxy)pyridin-4-yl]-N-(dimethylsulfamoyl)-4-[4-(morpholin-4-yl)piperidin-1-yl]-1H-pyrazolo[3,4-b]pyridine-6-carboxamide] | 361.3 | 0.0878 | 202.65 | 0.147 | – | 246.6667 | –
O=C(NS(=O)(=O)N1CCC1)c1cc(N2CCC(N3CCOCC3)CC2)c2c(C3CCC3)nn(-c3ccc(F)cc3)c2n1 [Compound 576, N-(azetidine-1-sulfonyl)-3-cyclobutyl-1-(4-fluorophenyl)-4-[4-(morpholin-4-yl)piperidin-1-yl]-1H-pyrazolo[3,4-b]pyridine-6-carboxamide] | 443.5 | 0.0547 | 257.15 | 0.139 | – | – | 225.798
O=C(NS(=O)(=O)NC1CCOCC1)c1cc(N2CCC(N3CCOCC3)CC2)c2c(C3CCC3)nn(-c3ccc(F)cc3)c2n1 [Compound 578, 3-cyclobutyl-1-(4-fluorophenyl)-4-[4-(morpholin-4-yl)piperidin-1-yl]-N-[(oxan-4-yl)sulfamoyl]-1H-pyrazolo[3,4-b]pyridine-6-carboxamide] | 462.3 | 0.108 | 309.25 | 0.152 | – | 936.6667 | –
CN(C)S(=O)(=O)NC(=O)c1cc(N2CCC(N3CCN(C4CC4)CC3)CC2)c2c(C3CCC3)nn(-c3ccc(F)cc3)c2n1 [Compound 583, 3-cyclobutyl-4-[4-(4-cyclopropylpiperazin-1-yl)piperidin-1-yl]-N-(dimethylsulfamoyl)-1-(4-fluorophenyl)-1H-pyrazolo[3,4-b]pyridine-6-carboxamide] | 480.15 | 0.0476 | 269.7 | 0.178 | 51.3 | 613.3333 | –
CN(C)S(=O)(=O)NC(=O)c1cc(N2CCC(CN3CCCC3)CC2)c2c(C3CCC3)nn(-c3ccc(F)cc3)c2n1 [Compound 589, 3-cyclobutyl-N-(dimethylsulfamoyl)-1-(4-fluorophenyl)-4-{4-[(pyrrolidin-1-yl)methyl]piperidin-1-yl}-1H-pyrazolo[3,4-b]pyridine-6-carboxamide] | 422.95 | 0.148 | 193.6 | 0.2 | – | 236.6667 | –
CCOC(=O)N1CCN(C2CCN(c3cc(C(=O)NS(=O)(=O)N(C)C)nc4c3c(C3CCC3)nn4-c3ccc(F)cc3)CC2)CC1 [Compound 590, ethyl 4-(1-{3-cyclobutyl-6-[(dimethylsulfamoyl)carbamoyl]-1-(4-fluorophenyl)-1H-pyrazolo[3,4-b]pyridin-4-yl}piperidin-4-yl)piperazine-1-carboxylate] | 487.9 | 0.0314 | 290.3 | 0.0867 | – | – | 220.4586
CN(C)S(=O)(=O)NC(=O)c1cc(C2CCN(C3CCC(F)(F)CC3)CC2)c2c(C3CCC3)nn(-c3ccc(F)cc3)c2n1 [Compound 594, 3-cyclobutyl-4-[1-(4,4-difluorocyclohexyl)piperidin-4-yl]-N-(dimethylsulfamoyl)-1-(4-fluorophenyl)-1H-pyrazolo[3,4-b]pyridine-6-carboxamide] | 308.05 | 0.181 | 135.7 | 0.519 | – | – | 320
CC(C)Oc1nn(C2CCCCC2)c2nc(C(=O)NS(C)(=O)=O)cc(-c3ccc(CN4CCN(C5CC5)CC4)cc3)c12 [Compound 597, 1-cyclohexyl-4-{4-[(4-cyclopropylpiperazin-1-yl)methyl]phenyl}-N-(methanesulfonyl)-3-[(propan-2-yl)oxy]-1H-pyrazolo[3,4-b]pyridine-6-carboxamide] | 433.93 | 0.111 | 214.3 | 0.13 | – | 263.3333 | –
CS(=O)(=O)NC(=O)c1cc(C2CCN(C3CCOCC3)CC2)c2c(C3CCC3)nn(-c3ccc(F)cc3)c2n1 [Compound 599, 3-cyclobutyl-1-(4-fluorophenyl)-N-(methanesulfonyl)-4-[1-(oxan-4-yl)piperidin-4-yl]-1H-pyrazolo[3,4-b]pyridine-6-carboxamide] | 285.2 | 0.27 | 88.94 | 0.331 | – | 116.6667 | –
CN(C)S(=O)(=O)NC(=O)c1cc(N2CCC(N3CCC(O)CC3)CC2)c2c(C3CCC3)nn(-c3ccc(F)cc3)c2n1 [Compound 605, 3-cyclobutyl-N-(dimethylsulfamoyl)-1-(4-fluorophenyl)-4-(4-hydroxy[1,4'-bipiperidin]-1'-yl)-1H-pyrazolo[3,4-b]pyridine-6-carboxamide] | 395.8 | 0.723 | 207.5 | 0.317 | – | 726.6667 | –
